Patent US8580794B2 (AbbVie Inc., priority 2009, dated 2013)
pEC50, pKi: −log10 of the molar value. Like-named read-outs stand apart in the source and are kept apart here.

Columns and labels:
GST-Bc1-2 = GST-Bc1-2 (Homo sapiens, UniProt P10415); assay: Time Resolved-Fluorescence Resonance Energy Transfer (TR-FRET) Bcl-2 binding assay with F-Bak peptide probe
RS4;11 cells = assay: RS4;11 Cell Viability Assay (CellTiter Glo); assay type: cell-based; details: Homo sapiens, RS4-11, 48 h, 50,000 cells per well, 10% human serum;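 note: RS4,11 acute lymphoblastic leukemia cells, viability as percent of untreated control cells, EC50 for loss of viable cells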
Procedure: The acute lymphoblastic leukemia (ALL) cell line RS4;11 was used as the primary human cell line to assess the cellular activity of Bcl-2 selective agents in vitro and their efficacy in vivo.
Cell cytotoxicity EC50 values were assessed using CellTiter Glo (Promega) according to the manufacturer's recommendations. The EC50 values were determined as a percentage of viable cells following treatment compared to the untreated control cells.

[1] = GST-Bcl-2 1 nM, F-Bak probe 100 nM, Tb-anti-GST 1 nM, '<' = below limit of detection, read-out: TR-FRET Bcl-2 Binding Ki

Sequence of GST-Bc1-2 (P10415 whole entry): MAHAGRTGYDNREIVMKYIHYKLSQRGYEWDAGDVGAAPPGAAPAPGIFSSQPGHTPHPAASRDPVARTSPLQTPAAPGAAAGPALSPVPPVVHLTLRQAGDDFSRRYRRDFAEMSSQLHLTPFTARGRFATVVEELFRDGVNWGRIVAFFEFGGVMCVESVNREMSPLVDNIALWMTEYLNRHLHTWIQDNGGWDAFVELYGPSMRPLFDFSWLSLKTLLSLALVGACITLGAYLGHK

CC1(C)CCC(CN2CCN(c3ccc(C(=O)NS(=O)(=O)c4ccc5c(c4)nnn5CC4CCOCC4)c(Oc4cnc5[nH]ccc5c4)c3)CC2)=C(c2ccc(Cl)cc2)C1 [Example 384, 4-(4-{[2-(4-chlorophenyl)-4,4-dimethylcyclohex-1-en-1-yl]methyl}piperazin-1-yl)-2-(1H-pyrrolo[2,3-b]pyridin-5-yloxy)-N-{[1-(tetrahydro-2H-pyran-4-ylmethyl)-1H-benzotriazol-5-yl]sulfonyl}benzamide]
pKi (GST-Bc1-2; [1]): 9.15
pEC50 (RS4;11 cells): < 6.00

COCC1CCN(C(=O)Nc2ccc(S(=O)(=O)NC(=O)c3ccc(N4CCN(CC5=C(c6ccc(Cl)cc6)CC(C)(C)CC5)CC4)cc3Oc3cnc4[nH]ccc4c3)cc2Cl)CC1 [Example 395, N-(2-chloro-4-{[4-(4-{[2-(4-chlorophenyl)-4,4-dimethylcyclohex-1-en-1-yl]methyl}piperazin-1-yl)-2-(1H-pyrrolo[2,3-b]pyridin-5-yloxy)benzoyl]sulfamoyl}phenyl)-4-(methoxymethyl)piperidine-1-carboxamide]
pKi (GST-Bc1-2; [1]): 9.59
pEC50 (RS4;11 cells): < 6.00

CC1(C)CCC(CN2CCN(c3ccc(C(=O)NS(=O)(=O)c4ccc(NC(=O)N5CCC(C#N)CC5)c([N+](=O)[O-])c4)c(Oc4cnc5[nH]ccc5c4)c3)CC2)=C(c2ccc(Cl)cc2)C1 [Example 381, N-(4-{[4-(4-{[2-(4-chlorophenyl)-4,4-dimethylcyclohex-1-en-1-yl]methyl}piperazin-1-yl)-2-(1H-pyrrolo[2,3-b]pyridin-5-yloxy)benzoyl]sulfamoyl}-2-nitrophenyl)-4-cyanopiperidine-1-carboxamide]
pKi (GST-Bc1-2; [1]): > 11.00
pEC50 (RS4;11 cells): 8.85

CC1(C)CCC(CN2CCN(c3ccc(C(=O)NS(=O)(=O)c4cnc5c(ccn5CC5CCOCC5)c4)c(Oc4cnc5[nH]ccc5c4)c3)CC2)=C(c2ccc(Cl)cc2)C1 [Example 388, 4-(4-{[2-(4-chlorophenyl)-4,4-dimethylcyclohex-1-en-1-yl]methyl}piperazin-1-yl)-2-(1H-pyrrolo[2,3-b]pyridin-5-yloxy)-N-{[1-(tetrahydro-2H-pyran-4-ylmethyl)-1H-pyrrolo[2,3-b]pyridin-5-yl]sulfonyl}benzamide]
pKi (GST-Bc1-2; [1]): 9.09
pEC50 (RS4;11 cells): < 6.00

COC1CCN(C(=O)Nc2ccc(S(=O)(=O)NC(=O)c3ccc(N4CCN(CC5=C(c6ccc(Cl)cc6)CC(C)(C)CC5)CC4)cc3Oc3cnc4[nH]ccc4c3)cc2[N+](=O)[O-])CC1 [Example 386, N-(4-{[4-(4-{[2-(4-chlorophenyl)-4,4-dimethylcyclohex-1-en-1-yl]methyl}piperazin-1-yl)-2-(1H-pyrrolo[2,3-b]pyridin-5-yloxy)benzoyl]sulfamoyl}-2-nitrophenyl)-4-methoxypiperidine-1-carboxamide]
pKi (GST-Bc1-2; [1]): > 11.00
pEC50 (RS4;11 cells): 8.08

O=C(NS(=O)(=O)c1ccc(NCC2CCOCC2)c([N+](=O)[O-])c1)c1ccc(N2CCN(Cc3ccccc3-c3ccc(Cl)cc3)CC2)cc1Oc1ccc2[nH]ccc2c1 [Example 87, 4-{4-[(4′-chloro-1,1′-biphenyl-2-yl)methyl]piperazin-1-yl}-2-(1H-indol-5-yloxy)-N-({3-nitro-4-[(tetrahydro-2H-pyran-4-ylmethyl)amino]phenyl}sulfonyl)benzamide]
pKi (GST-Bc1-2; [1]): 9.21
pKi (GST-Bc1-2; read-out: Bcl-2 FRET ki): 9.21
pEC50 (RS4;11 cells): 5.93

COC(=O)[C@H]1CC[C@H](CNc2ccc(S(=O)(=O)NC(=O)c3ccc(N4CCN(CC5=C(c6ccc(Cl)cc6)CC(C)(C)CC5)CC4)cc3Oc3cnc4[nH]ccc4c3)cc2[N+](=O)[O-])CC1 [Example 379, methyl trans-4-{[(4-{[4-(4-{[2-(4-chlorophenyl)-4,4-dimethylcyclohex-1-en-1-yl]methyl}piperazin-1-yl)-2-(1H-pyrrolo[2,3-b]pyridin-5-yloxy)benzoyl]sulfamoyl}-2-nitrophenyl)amino]methyl}cyclohexanecarboxylate]
pKi (GST-Bc1-2; [1]): > 11.00
pEC50 (RS4;11 cells): 7.71

CC1(C)CCC(CN2CCN(c3ccc(C(=O)NS(=O)(=O)c4ccc(NN5CCS(=O)(=O)CC5)c([N+](=O)[O-])c4)c(Oc4cnc5[nH]ccc5c4)c3)CC2)=C(c2ccc(Cl)cc2)C1 [Example 107, Trans-4-(4-{[2-(4-chlorophenyl)-4,4-dimethylcyclohex-1-en-1-yl]methyl}piperazin-1-yl)-N-({4-[(1,1-dioxidothiomorpholin-4-yl)amino]-3-nitrophenyl}sulfonyl)-2-(1H-pyrrolo[2,3-b]pyridin-5-yloxy)benzamide]
pKi (GST-Bc1-2; [1]): 10.46
pEC50 (RS4;11 cells): 7.21

CC1(C)CCC(CN2CCN(c3ccc(C(=O)NS(=O)(=O)c4ccc(NC(=O)N5CCC(C#N)CC5)c(Cl)c4)c(Oc4cnc5[nH]ccc5c4)c3)CC2)=C(c2ccc(Cl)cc2)C1 [Example 393, N-(2-chloro-4-{[4-(4-{[2-(4-chlorophenyl)-4,4-dimethylcyclohex-1-en-1-yl]methyl}piperazin-1-yl)-2-(1H-pyrrolo[2,3-b]pyridin-5-yloxy)benzoyl]sulfamoyl}phenyl)-4-cyanopiperidine-1-carboxamide]
pKi (GST-Bc1-2; [1]): 9.58
pEC50 (RS4;11 cells): < 6.00

CC1(C)CCC(CN2CCN(c3ccc(C(=O)NS(=O)(=O)c4cnc(OC[C@H]5CC[C@](O)(CO)CC5)c(Cl)c4)c(Oc4cnc5[nH]ccc5c4)c3)CC2)=C(c2ccc(Cl)cc2)C1 [Example 400, N-[(5-chloro-6-{[cis-4-hydroxy-4-(hydroxymethyl)cyclohexyl]methoxy}pyridin-3-yl)sulfonyl]-4-(4-{[2-(4-chlorophenyl)-4,4-dimethylcyclohex-1-en-1-yl]methyl}piperazin-1-yl)-2-(1H-pyrrolo[2,3-b]pyridin-5-yloxy)benzamide]
pKi (GST-Bc1-2; [1]): 10.51
pEC50 (RS4;11 cells): 7.19

CC1(C)CCC(CN2CCN(c3ccc(C(=O)NS(=O)(=O)c4cnc(OCC5CCC6(CC5)CNC(=O)O6)c(Cl)c4)c(Oc4cnc5[nH]ccc5c4)c3)CC2)=C(c2ccc(Cl)cc2)C1 (stereo not shown) [Example 385, N-({5-chloro-6-[(2-oxo-1-oxa-3-azaspiro[4.5]dec-8-yl)methoxy]pyridin-3-yl}sulfonyl)-4-(4-{[2-(4-chlorophenyl)-4,4-dimethylcyclohex-1-en-1-yl]methyl}piperazin-1-yl)-2-(1H-pyrrolo[2,3-b]pyridin-5-yloxy)benzamide]
pKi (GST-Bc1-2; [1]): > 11.00
pEC50 (RS4;11 cells): 6.88

CC1(C(=O)O)CCC(c2ccc(Cl)cc2)=C(CN2CCN(c3ccc(C(=O)NS(=O)(=O)c4ccc(NCC5CCOCC5)c([N+](=O)[O-])c4)c(Oc4cnc5[nH]ccc5c4)c3)CC2)C1 (stereo not shown) [Example 404, 4-(4-chlorophenyl)-1-methyl-3-[(4-{4-[({3-nitro-4-[(tetrahydro-2H-pyran-4-ylmethyl)amino]phenyl}sulfonyl)carbamoyl]-3-(1H-pyrrolo[2,3-b]pyridin-5-yloxy)phenyl}piperazin-1-yl)methyl]cyclohex-3-ene-1-carboxylic acid]
pKi (GST-Bc1-2; [1]): > 11.00
pEC50 (RS4;11 cells): < 6.00

COC1CCN(C(=O)Nc2ccc(S(=O)(=O)NC(=O)c3ccc(N4CCN(CC5=C(c6ccc(Cl)cc6)CC(C)(C)CC5)CC4)cc3Oc3cnc4[nH]ccc4c3)cc2Cl)CC1 [Example 392, N-(2-chloro-4-{[4-(4-{[2-(4-chlorophenyl)-4,4-dimethylcyclohex-1-en-1-yl]methyl}piperazin-1-yl)-2-(1H-pyrrolo[2,3-b]pyridin-5-yloxy)benzoyl]sulfamoyl}phenyl)-4-methoxypiperidine-1-carboxamide]
pKi (GST-Bc1-2; [1]): 9.77
pEC50 (RS4;11 cells): < 6.00

CC1(C)CCC(CN2CCN(c3ccc(C(=O)NS(=O)(=O)c4ccc(NC(=O)N5CCC(C)(O)CC5)c(Cl)c4)c(Oc4cnc5[nH]ccc5c4)c3)CC2)=C(c2ccc(Cl)cc2)C1 [Example 394, N-(2-chloro-4-{[4-(4-{[2-(4-chlorophenyl)-4,4-dimethylcyclohex-1-en-1-yl]methyl}piperazin-1-yl)-2-(1H-pyrrolo[2,3-b]pyridin-5-yloxy)benzoyl]sulfamoyl}phenyl)-4-hydroxy-4-methylpiperidine-1-carboxamide]
pKi (GST-Bc1-2; [1]): 9.88
pEC50 (RS4;11 cells): 6.34

COC[C@H]1CC[C@@H](CNc2ccc(S(=O)(=O)NC(=O)c3ccc(N4CCN(CC5=C(c6ccc(Cl)cc6)CC(C)(C)CC5)CC4)cc3Oc3cnc4[nH]ccc4c3)cc2[N+](=O)[O-])CC1 [Example 382, 4-(4-{[2-(4-chlorophenyl)-4,4-dimethylcyclohex-1-en-1-yl]methyl}piperazin-1-yl)-N-{[4-({[cis-4-(methoxymethyl)cyclohexyl]methyl}amino)-3-nitrophenyl]sulfonyl}-2-(1H-pyrrolo[2,3-b]pyridin-5-yloxy)benzamide]
pKi (GST-Bc1-2; [1]): > 11.00
pEC50 (RS4;11 cells): 7.57

O=C(NS(=O)(=O)c1ccc(NCC2CCOCC2)c([N+](=O)[O-])c1)c1ccc(N2CCN(CC3=C(c4ccc(Cl)cc4)CCCC3)CC2)cc1Oc1cnc2[nH]ccc2c1 [Example 403, 4-(4-{[2-(4-chlorophenyl)cyclohex-1-en-1-yl]methyl}piperazin-1-yl)-N-({3-nitro-4-[(tetrahydro-2H-pyran-4-ylmethyl)amino]phenyl}sulfonyl)-2-(1H-pyrrolo[2,3-b]pyridin-5-yloxy)benzamide]
pKi (GST-Bc1-2; [1]): > 11.00
pEC50 (RS4;11 cells): 7.47

Cc1nc2c(s1)CC(COc1ncc(S(=O)(=O)NC(=O)c3ccc(N4CCN(CC5=C(c6ccc(Cl)cc6)CC(C)(C)CC5)CC4)cc3Oc3cnc4[nH]ccc4c3)cc1Cl)CC2 (stereo not shown) [Example 387]
pKi (GST-Bc1-2; [1]): > 11.00
pEC50 (RS4;11 cells): 6.04

CC1(C)CCC(CN2CCN(c3ccc(C(=O)NS(=O)(=O)c4cnc(OCC5CCC6(CC5)CNC(=O)O6)c(Cl)c4)c(Oc4cnc5[nH]ccc5c4)c3)CC2)=C(c2ccc(Cl)cc2)C1 (single isomer, unassigned) [Example 396, N-[(5-chloro-6-{[(5r,8r)-2-oxo-1-oxa-3-azaspiro[4.5]dec-8-yl]methoxy}pyridin-3-yl)sulfonyl]-4-(4-{[2-(4-chlorophenyl)-4,4-dimethylcyclohex-1-en-1-yl]methyl}piperazin-1-yl)-2-(1H-pyrrolo[2,3-b]pyridin-5-yloxy)benzamide]
pKi (GST-Bc1-2; [1]): 10.85
pEC50 (RS4;11 cells): 7.08
